Laboratory results taken from patent US20230405063A1, “USE OF PROBIOTIC COMPONENT AND PHARMACEUTICAL COMPOSITION CONTAINING PROBIOTIC COMPONENT” (CHENGDU KUACHANGAOPU MEDICAL TECHNOLOGY CO., LTD., priority 2020, published 2023).

Legend:
Assay type in all cases: in vivo
[1] = tested on: outer lateral muscle mass of the right leg; test: Local effect on normal muscle tissue, area of abnormal regions, BALB/c mice (Example 9, Table 15); conditions: dosed once into muscle, 100 ul/mouse, 7th day
Method: BALB/c mice were used as experimental subjects, and the model animals were randomly divided into 4 groups, having 6 animals in each group. The drugs were administered according to Table 15. […] On the 7th day after drug administration, the animals were euthanized. The specimens of the outer lateral muscle mass of the right leg were taken out by autopsy, and perform a general pathological analysis. The sections were measured for the area of abnormal regions such as necrosis and nodules that distinguished from normal muscle.

[2] = tested on: outer lateral muscle mass of the right leg; test: Local effect on normal muscle tissue, area of abnormal regions, nude mice
Method: The animals were euthanized on the 7th day after drug administration, and the specimens of the outer lateral muscle mass of the right leg from the nude mice were taken out by autopsy, and the areas of abnormal regions different from normal muscles, such as of necrosis and nodules, were measured after sectioning and washing.
Each group was dosed once with an injection volume of 100 μl/mouse by administering to the outer lateral muscle mass of the right leg. On the 7th day after drug administration, the animals were euthanized, and the specimens of the outer lateral muscle mass of the right leg were taken out after dissection to perform a general pathological analysis. The sections were measured for the area of abnormal regions that distinguished from normal muscle, such as necrosis and nodules.

[3] = tested on: human pancreatic cancer cells (PANC-1); test: Tumor inhibition in PANC-1 tumor-bearing nude mice, administration volume study (Example 4, Table 6); conditions: intratumoral once
Method: Nude mice were used as experimental subjects, and human pancreatic cancer cells (PANC-1) were used as modeling cells, 1×10^5 cells/mouse were injected into the right axilla subcutaneously for transplantation tumor modeling, and the average tumor volume of successfully modeled nude mice was 213.1 mm^3. The model animals were randomly divided into 16 groups, and the drugs were administered intratumorally according to the drug components and administration volumes in Table 6, and each group was administered once. The drugs in groups 1-12 were prepared according to the method of Example 1, wherein the inactivated probiotics were heat-inactivated Saccharomyces boulardii, the probiotic water-insoluble component particles were β-glucan particles, the probiotic water-soluble component was disrupted Saccharomyces boulardii supernatant component, and the mixture of the probiotic water-insoluble component particles and water-soluble component (abbreviated as probiotic component mixture) was disrupted Saccharomyces boulardii, preparation method used was the same as that of Example 3. On the 7th day after drug administration, the animals were euthanized, and the tumor tissues were taken out after dissection to determine the tumor weight, and the tumor inhibition rate (r) was calculated relative to the negative control group.

[4] = injection volume 20 ul, administration volume/tumor volume 0.09, 7th day
[5] = injection volume 50 ul, administration volume/tumor volume 0.23, 7th day
[6] = injection volume 100 ul, administration volume/tumor volume 0.47, 7th day

Structure (SMILES): CCO [75% ethanol, ethanol]
- Area of abnormal regions [1]: 33.16 ± 13.44 mm^2
- Area of abnormal regions (necrosis, nodules) ([2]; dosed once into muscle 100 μl/mouse, 7th day (b197 experiment)): 32.24±13.71 mm^2
- Areas of the abnormal regions (necrosis, nodules) ([2]; injection into muscle 100 ul/mouse, 7th day (b168 experiment)): 35.14±15.92 mm^2
- Tumor inhibition rate r [3, 4]: 6.2%
- Tumor weight (x ± s) [3, 4]: 0.257 ± 0.110 g
- Tumor inhibition rate r [3, 5]: 20.3%
- Tumor weight (x ± s) [3, 5]: 0.218 ± 0.115 g
- Tumor inhibition rate r [3, 6]: 31.7%
- Tumor weight (x ± s) [3, 6]: 0.187 ± 0.064 g
